Reference: publication PMC8165744, “Identification of an Alternative Glycyrrhizin Metabolite Causing Liquorice-Induced Pseudohyperaldosteronism and the Development of ELISA System to Detect the Predictive Biomarker” (Frontiers in Pharmacology, 2021)

Key:
[1] = relationship of serum concentration of compound 4 with laboratory markers and symptoms of pseudohyperaldosteronism; type: in vivo, human
Excerpt: Evaluation of the Pathological Relationship Between Compound 4 and Pseudohyperaldosteronism Pathology
We recorded the following available clinical symptoms and laboratory data when blood samples were drawing from patients: age, sex, complications, concomitant medications, daily liquorice dose, duration of administration of liquorice-containing herbal preparations, symptoms (blood pressure and pedal oedema), and laboratory test values, namely: total protein, albumin, total and direct bilirubin, aspartate amino transferase, alanine amino transferase, blood urea nitrogen, creatinine, sodium, potassium, chloride, calcium, magnesium, prothrombin time, plasma renin activity or activated renin concentration, and plasma aldosterone concentration (blood test data), and urine concentrations of potassium and creatinine (urinalysis data). Samples were processed according to the individual institutional protocols, and all data were measured at each institution.
FIGURE 3 Concentration of 4 in human serum samples and three or laboratory markers (A) Strong positive correlation was identified between serum concentrations of 3 and 4.

[2] = biological target: T1, rat type-2 11β-hydroxysteroid dehydrogenase (11β-HSD2) (Rattus norvegicus, UniProt P50233); test: in vitro 11β-HSD2 activity using rat kidney microsomes; type: biochemical; conditions: rat kidney microsome fraction, 37°C, 30 min
T1 construct: from tissue; host or cells: rat kidney microsome fraction
T1 sequence (P50233 1-400): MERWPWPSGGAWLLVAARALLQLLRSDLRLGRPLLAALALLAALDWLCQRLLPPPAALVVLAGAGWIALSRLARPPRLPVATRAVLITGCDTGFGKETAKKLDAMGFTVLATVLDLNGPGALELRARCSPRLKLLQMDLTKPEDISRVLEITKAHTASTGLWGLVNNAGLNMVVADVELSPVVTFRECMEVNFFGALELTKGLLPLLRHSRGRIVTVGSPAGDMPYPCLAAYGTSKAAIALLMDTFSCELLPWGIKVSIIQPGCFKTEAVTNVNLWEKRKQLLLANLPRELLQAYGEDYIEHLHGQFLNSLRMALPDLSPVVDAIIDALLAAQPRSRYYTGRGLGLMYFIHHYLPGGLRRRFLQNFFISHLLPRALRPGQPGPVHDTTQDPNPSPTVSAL
Protocol: Determination of in vitro 11β-HSD2 Activity Using Rat Kidney Microsomes
Then, the amount of [^3H] cortisol was measured. […] Kidneys were collected from normal Sprague-Dawley (SD) rats and slices were incubated with plasma samples of female EHBRs at 37°C or 4°C for 2 h, and then homogenized. […] HEK293 cells transfected with OAT1 or OAT3 were incubated with 1:2 diluted plasma samples of male EHBRs at 37°C for 15 min. Then, concentrations of 4 in cells were measured using LC-MS/MS.

correlation of serum concentration with plasma renin activity and aldosterone concentration ([1]; human serum samples): negative correlations | serum potassium concentration in participants with higher serum concentrations ([1]; human serum samples): tended to be lower | IC50 [2]: 380 nM
SMILES: CC1(C)[C@@H](OS(=O)(=O)O)CC[C@]2(C)[C@H]3C(=O)C=C4[C@@H]5C[C@@](C)(C(=O)O[C@@H]6O[C@H](C(=O)O)[C@@H](O)[C@H](O)[C@H]6O)CC[C@]5(C)CC[C@@]4(C)[C@]3(C)CC[C@@H]12 [Compound 4, 18β-glycyrrhetyl-3-O-sulfate-30-O-glucuronide]
relationship with clinical symptoms ([1]; blood pressure, oedema): not significant
